Columns and labels:
[1] = system: normal human dermal fibroblast (NHDF) cells; assay: Proliferation assay (MTS, 96 h), normal mortal cells; assay type: cell-based; conditions: 96 h incubation, mean ±SD (3 experiments)
In short: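 HCT116 p53+/+, HCT116 p53−/− and NHDF cells were seeded 24 h before a 96 h compound exposure at 37 °C, with final DMSO <0.05%. Viability was read by MTS absorbance at 490 nm after 1 h; IC50 was the concentration reducing absorbance to 50% of untreated control.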

[2] = system: SK-N-MC cells; assay: Mobilization of cellular 59Fe (59Fe efflux); assay type: cell-based, human; conditions: chelator 25 µM; for 59Fe mobilization (% of cellular 59Fe released): 3 h/37°C, prelabeled SK-N-MC cells, control medium 4±1%; for 59Fe mobilization efficacy compared with controls: SK-N-MC cells
Description: (§1) The iron transport protein, Tf (Sigma-Aldrich), was labeled with ^59Fe (PerkinElmer Life and Analytical Sciences, Boston, MA) to form ^59Fe2-Tf using standard methods, [7]. Unbound ^59Fe was removed by passage through a Sephadex G25 column and was followed by exhaustive dialysis, [7].
To examine the ability of the novel chelators to mobilize ^59Fe from SK-N-MC cells, ^59Fe efflux experiments were performed using established techniques, [51]. The monolayer of SK-N-MC cells was prelabeled for 3 h at 37°C in MEM containing ^59Fe2-Tf (0.75 µM). Cells were then washed four times with ice-cold PBS and incubated for a further 3 h at 37°C with medium alone (the control) or medium containing the chelator (25 µM). After this incubation, the overlying medium that contained the released ^59Fe was separated from the cells using a Pasteur pipette. Radioactivity was measured in both the cells and supernatant using a γ-scintillation counter (Wallac Wizard 3, Turku, Finland). In these studies, the novel ligands were compared to the previously characterized chelators, DFO and Dp44mT, as their ability to mobilize cellular ^59Fe has been extensively examined in these cells, [12], [17], [18], [50].
Figure 6 Effect of (A) series 1, (B) series 2, (C) series 3, (D) series 4, (E) series 5 and (F) series 6 chelators, relative to the controls DFO and Dp44mT, on ^59Fe mobilization from prelabeled SK-N-MC cells. Cells were incubated for 3 h/37°C with ^59Fe-transferrin (0.75 µM), washed 4 times with ice-cold PBS and then reincubated for 3 h/37°C in the presence or absence of the chelators (25 µM). Release of ^59Fe was then assessed using a γ-scintillation counter. Results are mean ±SD (3 experiments).

[3] = system: SK-N-MC cells; assay: Inhibition of cellular 59Fe uptake from 59Fe2-Tf; assay type: cell-based, human; conditions: chelator 25 µM; for Internalized 59Fe uptake from 59Fe2-Tf (% of the control): 59Fe2-Tf 0.75 µM, 3 h/37°C
Description: as §1
The ability of the chelators to prevent the cellular uptake of ^59Fe from ^59Fe2-Tf was examined using standard methods, [14], [17], [18], [50]. A monolayer of SK-N-MC cells was incubated with medium containing ^59Fe2-Tf (0.75 µM) and the chelator (25 µM) for 3 h at 37°C. The medium was then removed and the cells were washed four times with ice-cold PBS. The cells were then incubated for 30 min at 4°C with the general protease, Pronase (1 mg/mL; Sigma-Aldrich), to remove membrane-bound ^59Fe. The cells were removed using a plastic spatula and centrifuged at 14,000 rpm/1 min to separate internalized from membrane-bound ^59Fe. The cell pellet was resuspended in 1 mL of PBS and the internalized ^59Fe was measured on a γ-scintillation counter. Internalized ^59Fe uptake was calculated as a percentage of the control (medium alone). Again, the novel ligands were compared to DFO and Dp44mT as their ability to inhibit cellular ^59Fe uptake has been extensively characterized using SK-N-MC cells, [14], [17], [18], [50].
Figure 8 Effect of (A) series 1, (B) series 2, (C) series 3, (D) series 4, (E) series 5 and (F) series 6 chelators, relative to the controls DFO and Dp44mT, on ^59Fe uptake from ^59Fe-transferrin by SK-N-MC cells. Cells were incubated for 3 h/37°C with ^59Fe-transferrin (0.75 µM) in the presence or absence of the chelators (25 µM). At the end of this incubation, cells were washed 4 times with ice-cold PBS. Internalization of ^59Fe was assessed by incubation for 30 min/4°C with the protease, Pronase (1 mg/mL). Cellular ^59Fe was then assessed using a γ-scintillation counter. Results are mean ±SD (3 experiments).

Structure (SMILES)	IC50 ([1]; Homo sapiens, NHDF, 96 h) [nM]	59Fe mobilization (% of cellular 59Fe released) [2]	59Fe mobilization efficacy compared with controls [2]	Inhibition of 59Fe uptake compared with controls [3]	IC50 [1] [nM]	Internalized 59Fe uptake from 59Fe2-Tf (% of the control) [3]
S=C(NN=C(c1ccccn1)c1ccccn1)N1CCN(c2cnccn2)CC1 [1e]	14 ± 3	31–39%				
CCN1CCN(C(=S)N/N=C/c2ccc3ccccc3n2)CC1 [2a]	9620 ± 1800		comparable ^59Fe mobilization efficacy to that of the control medium	comparable ability to inhibit ^59Fe uptake to the control medium		
S=C(N/N=C/c1ccc2ccccc2n1)N1CCN(c2ccccc2)CC1 [2b]			comparable release of ^59Fe relative to DFO	comparable inhibition of ^59Fe uptake to that of DFO	33 ± 7	
CN(C(=S)N/N=C/c1ccc2ccccc2n1)C1CCCCC1 [2f]	15 ± 5		comparable release of ^59Fe relative to DFO	comparable inhibition of ^59Fe uptake to that of DFO		
CN(C(=S)N/N=C/c1cnc2ccccc2n1)C1CCCCC1 [5f]	500 ± 210		comparable release of ^59Fe relative to DFO	comparable inhibition of ^59Fe uptake to that of DFO		
CN(C(=S)N/N=C/c1ccccc1O)C1CCCCC1 [6f]	> 25000					3.6–11.5%
CC(=O)N(O)CCCCCNC(=O)CCC(=O)N(O)CCCCCNC(=O)CCC(=O)N(O)CCCCCN [DFO, desferrioxamine, reference compound]	> 25000	11±2%				83%
CN(C)C(=S)NN=C(c1ccccn1)c1ccccn1 [Dp44mT, di-2-pyridylketone 4,4-dimethyl-3-thiosemicarbazone, reference compound]	15400 ± 5060	35±2%				6%
